Data taken from patent US9622481B2, “Biofilm-removing antimicrobial compositions and uses thereof” (Kane Biotech Inc., priority 2009, dated 2017).

What was measured:
Assay type in all cases: cell-based
Escherichia coli biofilm [1] = test: Biofilm formation, crystal violet staining, 96-well microtiter plate (Example 4); conditions: reduction in biofilm formation, OD at 630 nm, 37° C., 24 hours
Protocol: (§1) An overnight broth culture of E. coli was grown in TSB and used as inoculum. 96-well microtiter plate containing TSB in the absence and presence of each compound separately (SMP or FU) and together (SMP+FU) were inoculated. The biofilm was grown by incubating at 37° C. for 24 hours. Growth of planktonic cells based on absorbance at 600 nm using Labsystems Multiskan Ascent microplate reader was determined. Biofilm was measured by discarding the media in the wells, rinsing the well three times with water, and staining the bound cells with crystal violet. The dye was then solubilized with 33% acetic acid, and absorbance at 630 nm was determined using a microtiter plate reader.

[2] = tested on: Pseudomonas aeruginosa biofilm; test: Biofilm formation, crystal violet staining, 96-well microtiter plate (Example 5); conditions: reduction in biofilm formation, OD at 630 nm, 37° C., 24 hours
Protocol: as §1, with “P. aeruginosa” for “E. coli”

[3] = tested on: Staphylococcus epidermidis biofilm; test: Biofilm formation, crystal violet staining, 96-well microtiter plate (Example 6); conditions: reduction in biofilm formation, OD at 630 nm, 37° C., 24 hours
Protocol: as §1, with “S. epidermidis” for “E. coli”

Escherichia coli biofilm [4] = test: Biofilm formation, crystal violet staining, 96-well microplate (Example 1); conditions: reduction in biofilm formation, OD at 630 nm, 26° C., 24 hours
Protocol: (§2) An overnight broth culture of E. coli was grown in TSB and used as inoculum. 96-well microplates containing colony forming antigen medium (for […] species) in the absence and the presence of each compound (PS or BZK) separately and together (PS and BZK) were inoculated and incubated at 26° C. for 24 hours. Growth of planktonic cells based on absorbance at 600 nm using Labsystems Multiskan Ascent microplate reader was determined. Biofilm was measured by discarding the media in the wells, rinsing the well three times with water, and staining the bound cells with crystal violet. The dye was then solubilized with 33% acetic acid, and absorbance at 630 nm was determined using a microtiter plate reader.

[5] = tested on: Pseudomonas aeruginosa biofilm; test: Biofilm formation, crystal violet staining, 96-well microplate (Example 2); conditions: reduction in biofilm formation, OD at 630 nm, 26°, 24 hours
Protocol: as §2, with “P. aeruginosa” for “E. coli”, “26°” for “26° C.”

[6] = tested on: Staphylococcus epidermidis biofilm; test: Biofilm formation, crystal violet staining, 96-well microplate (Example 3); conditions: reduction in biofilm formation, OD at 630 nm, 37° C., 24 hours
Protocol: as §2, with “S. epidermidis” for “E. coli”, “TSB,” for “TSB”, “TSB” for “colony forming antigen medium”, “37°” for “26°”

Escherichia coli = test: Minimum inhibitory concentration (MIC) in 96-well microtiter plates; conditions: agent alone, TSB, 37° C., 24 hours
Protocol: (§3) Bacterial strains were grown overnight at 37° C. with 100 rpm shaking in Tryptic Soy Broth (TSB) and diluted to approximately 10^5 CFU/ml. Assays were conducted by methods of minimum inhibitory concentration (MIC) in 96-well microtiter plates as described previously (Amsterdam, D. 1996, In: V. Loman, Ed., “Antibiotics in laboratory medicine”, p. 52-111, Williams and Wilkins, Baltimore, M.D.). Antimicrobials PS and SNP both alone and together were serially diluted in TSB (100 μl), and 100 μl of bacterial suspension was added to each well. Plates were incubated at 37° C. for 24 hours and read at 600 nm using a microtiter plate reader (Multiskan Ascent, Labsystems, Helsinki, Finland).

S. aureus = test: as above; conditions: agent alone, TSB, 37° C., 24 hours
Protocol: as §3

Escherichia coli biofilm [7] = test: Biofilm formation, crystal violet staining, 96-well microtiter plate (Example 7); conditions: reduction in biofilm formation, OD at 630 nm, 37° C., 24 hours
Protocol: as §1, with “CHX)” for “FU)”, “(SMP+CHX)” for “(SMP+FU)”

[8] = tested on: Pseudomonas aeruginosa biofilm; test: Biofilm formation, crystal violet staining, 96-well microplate (Example 8); conditions: reduction in biofilm formation, OD at 630 nm, 24 hours
Protocol: An overnight broth culture of bacteria and yeast were grown in TSB and used as inoculum. 96-well microplates containing TSB (for gram-positive species and yeast) and colony forming unit antigen medium (for gram-negative bacteria) in the absence and the presence of each compound separately (SMP or CHX) and together (SMP+CHX) were inoculated. The biofilm was grown by incubating at 37° C. (for gram-positive bacteria and yeast) and 26° C. (for gram-negative bacteria) for 24 hours. Growth of planktonic cells based on absorbance at 600 nm using Labsystems Multiskan Ascent microplate reader was determined. Biofilm was measured by discarding the media in the wells, rinsing the well three times with water, and staining the bound cells with crystal violet. The dye was then solubilized with 33% acetic acid, and absorbance at 630 nm was determined using a microtiter plate reader.

[9] = tested on: Staphylococcus epidermidis biofilm; test: Biofilm formation, crystal violet staining, 96-well microtiter plate (Example 9); conditions: reduction in biofilm formation, OD at 630 nm, 37° C., 24 hours
Protocol: as §1, with “S. epidermidis” for “E. coli”, “CHX)” for “FU)”, “(SMP+CHX)” for “(SMP+FU)”

## O=c1[nH]cc(F)c(=O)[nH]1 [FU, 5-fluorouracil]
Escherichia coli biofilm [1]; FU 6.25 μg/ml alone
  Biofilm Inhibition by FU: 0.17 OD
[2]; FU 3.75 μg/ml alone
  Biofilm Inhibition by FU: 0.00 OD
[3]; FU 20 μg/ml alone
  Biofilm Inhibition by FU: 1.43 OD

## protamine sulfate [PS]
Escherichia coli biofilm [4]; PS 12 μg/ml alone
  Biofilm Inhibition by PS: 0.04 OD
[5]; PS 25 μg/ml alone
  Biofilm Inhibition by PS: 0.00 OD
[6]; PS 1.5 μg/ml alone
  Biofilm Inhibition by PS: 0.34 OD
Escherichia coli
  MIC: >200 mg/L
S. aureus
  MIC: >200 mg/L

## benzalkonium chloride [BZK]
Escherichia coli biofilm [4]; BZK 6 μg/ml alone
  Biofilm Inhibition by BZK: 0.14 OD
[5]; BZK 12.5 μg/ml alone
  Biofilm Inhibition by BZK: 0.00 OD
[6]; BZK 0.8 μg/ml alone
  Biofilm Inhibition by BZK: 1.21 OD

## [Na+].[O-][I+3]([O-])([O-])[O-] [SMP, sodium metaperiodate]
Escherichia coli biofilm [1]; SMP 250 μg/ml alone
  Biofilm Inhibition by SMP: 0.3 OD
[2]; SMP 250 μg/ml alone
  Biofilm Inhibition by SMP: 0.16 OD
[3]; SMP 250 μg/ml alone
  Biofilm Inhibition by SMP: 0.00 OD
Escherichia coli biofilm [7]; SMP 250 μg/ml alone
  Biofilm Inhibition by SMP: 0.12 OD
[8]; SMP 125 μg/ml alone
  Biofilm Inhibition by SMP: 0.17 OD
[9]; SMP 250 μg/ml alone
  Biofilm Inhibition by SMP: 0.00 OD

## [H]/N=C(\N/C(=N/[H])NCCCCCCNC(=N)NC(=N)Nc1ccc(Cl)cc1)Nc1ccc(Cl)cc1 [CHX, chlorhexidine]
Escherichia coli biofilm [7]; CHX 1 μg/ml alone
  Biofilm Inhibition by CHX: 0.04 OD
[8]; CHX 6 μg/ml alone
  Biofilm Inhibition by CHX: 0.66 OD
[9]; CHX 0.5 μg/ml alone
  Biofilm Inhibition by CHX: 0.00 OD
